Measured values taken from US20030059956A1, “Method to follow progression of kidney disease” (priority 2001, published 2003).

System: urinary TGF-β1
Assay: Urinary TGF-β1 excretion in proteinuric patients, add-on losartan crossover trial on background lisinopril
Format: in vivo, human
Settings: add-on losartan 50 mg/d for 4 weeks on lisinopril 40 mg/d
Description: Patients previously administered angiotensin-receptor blockers (ARBs) or with estimated creatinine clearances of less than 30 mumin were excluded. A separate group of 12 healthy volunteers with normal BP, normal albuminuria, and no history of kidney disease or diabetes served as the control group for urinary TGF-β1 levels.
The study was a two-period, crossover, randomized, controlled trial. Seventeen (17) patients were administered a sequence of either losartan, 50 mg/d, for 4 weeks, 2-week washout, and placebo for 4 weeks or placebo for 4 weeks, 2-week washout, and losartan, 50 mg/d, for 4 weeks. […] Twenty-four-hour urine was collected for protein, sodium, urea, creatinine, and urinary TGF-β1 measurement. Because standard therapy for patients with proteinuria and renal failure includes ACE inhibitors, ACE inhibitor therapy was not discontinued in any patient enrolled in the study.
Appropriate corrections for concentrations were made and values were expressed as TGF-β1 in picograms per milligram of creatinine. […] TGF-β expressed as TGF-β in picograms per milligram of creatinine was calculated as follows:
The normality assumption was tested with the Kolmogrov Smirnov statistic, and homogeneity of variances was tested using Lavene's test. […] Data were analyzed by two-way mixed-model analysis of variance with subjects as the random variable and drug or placebo assignment as the fixed variable. […]

With `CCCCc1nc(Cl)c(CO)n1Cc1ccc(-c2ccccc2-c2nn[nH]n2)cc1` [losartan] the “reduction in urinary TGF-β1 levels” value (95% CI 16 to 55, P=0.017) was 38% and the “urinary TGF-β1 level after losartan” value (geometric mean, pre-losartan level 13.3 (95% CI 11.4 to 15.5)) was 8.2 pg/mg creatinine.
